7 compounds from ChEMBL document CHEMBL1949576, “Praziquantel derivatives exhibit activity against both juvenile and adult Schistosoma japonicum” (2012) can be followed below.

Common to all, as to assay type: functional
Assay [1] relates to Schistosoma japonicum. Put plainly: Antischistosomal activity against adult Schistosoma japonicum assessed as worm survival at 50 uM after 48 hrs relative to control.
Assay [2] concerns Schistosoma japonicum. Nature of the assay: Antischistosomal activity against adult Schistosoma japonicum assessed as worm survival at 25 uM after 48 hrs relative to control.
The subject of assay [3] is Schistosoma japonicum. Nature of the assay: Antischistosomal activity against adult Schistosoma japonicum assessed as worm survival at 10 uM after 48 hrs relative to control.
Assay [4] deals with Schistosoma japonicum. Put plainly: Antischistosomal activity against adult Schistosoma japonicum assessed as worm survival at 5 uM after 48 hrs relative to control.
Assay [5] relates to Schistosoma japonicum. Nature of the assay: Antischistosomal activity against adult Schistosoma japonicum assessed as worm survival at 50 uM after 72 hrs relative to control.
In assay [6] the test system is Schistosoma japonicum. Put plainly: Antischistosomal activity against adult Schistosoma japonicum assessed as worm survival at 25 uM after 72 hrs relative to control.
In assay [7] the test system is Schistosoma japonicum. Put plainly: Antischistosomal activity against adult Schistosoma japonicum assessed as worm survival at 10 uM after 72 hrs relative to control.
Assay [8] has as its system Schistosoma japonicum. Nature of the assay: Antischistosomal activity against adult Schistosoma japonicum assessed as worm survival at 5 uM after 72 hrs relative to control.
Assay [9] deals with Schistosoma japonicum. Put plainly: Antischistosomal activity against juvenile Schistosoma japonicum assessed as worm survival at 50 uM after 24 hrs relative to control.
Assay [10] deals with Schistosoma japonicum. Put plainly: Antischistosomal activity against juvenile Schistosoma japonicum assessed as worm survival at 15 uM after 24 hrs relative to control.
Assay [11] relates to Schistosoma japonicum. Nature of the assay: Antischistosomal activity against juvenile Schistosoma japonicum assessed as worm survival at 10 uM after 24 hrs relative to control.
The test system of assay [12] is Schistosoma japonicum. Put plainly: Antischistosomal activity against juvenile Schistosoma japonicum assessed as worm survival at 5 uM after 24 hrs relative to control.
The subject of assay [13] is Schistosoma japonicum. Nature of the assay: Antischistosomal activity against juvenile Schistosoma japonicum assessed as worm survival at 50 uM after 48 hrs relative to control.
The test system of assay [14] is Schistosoma japonicum. Put plainly: Antischistosomal activity against juvenile Schistosoma japonicum assessed as worm survival at 15 uM after 48 hrs relative to control.
The test system of assay [15] is Schistosoma japonicum. Nature of the assay: Antischistosomal activity against juvenile Schistosoma japonicum assessed as worm survival at 10 uM after 48 hrs relative to control.
The subject of assay [16] is Schistosoma japonicum. Put plainly: Antischistosomal activity against juvenile Schistosoma japonicum assessed as worm survival at 5 uM after 48 hrs relative to control.
In assay [17] the test system is Schistosoma japonicum. Nature of the assay: Antischistosomal activity against juvenile Schistosoma japonicum assessed as worm survival at 50 uM after 72 hrs relative to control.
In assay [18] the test system is Schistosoma japonicum. Put plainly: Antischistosomal activity against juvenile Schistosoma japonicum assessed as worm survival at 15 uM after 72 hrs relative to control.
Assay [19] relates to Schistosoma japonicum. Put plainly: Antischistosomal activity against juvenile Schistosoma japonicum assessed as worm survival at 10 uM after 72 hrs relative to control.
For assay [20], the system named is Schistosoma japonicum. Nature of the assay: Antischistosomal activity against juvenile Schistosoma japonicum assessed as worm survival at 5 uM after 72 hrs relative to control.
Assay [21] relates to Schistosoma japonicum. Put plainly: Antischistosomal activity against adult Schistosoma japonicum infected in mouse assessed as total worm reduction at 200 mg/kg, po administered 21 days after infection relative to control. Further details: scale not given: the % may be the effect or the level left.
Assay [22] has as its system Schistosoma japonicum. Put plainly: Antischistosomal activity against juvenile Schistosoma japonicum infected in mouse assessed as total worm reduction at 200 mg/kg, po administered 14 days after infection relative to control. Further details: scale not given: the % may be the effect or the level left.
The subject of assay [23] is Schistosoma japonicum. Put plainly: Antischistosomal activity against adult Schistosoma japonicum assessed as worm survival at 50 uM after 24 hrs relative to control.
For assay [24], the system named is Schistosoma japonicum. Nature of the assay: Antischistosomal activity against adult Schistosoma japonicum assessed as worm survival at 25 uM after 24 hrs relative to control.
Assay [25] relates to Schistosoma japonicum. Nature of the assay: Antischistosomal activity against adult Schistosoma japonicum assessed as worm survival at 10 uM after 24 hrs relative to control.
Assay [26] concerns Schistosoma japonicum. Nature of the assay: Antischistosomal activity against adult Schistosoma japonicum assessed as worm survival at 5 uM after 24 hrs relative to control.
Assay [27] relates to Schistosoma japonicum. Nature of the assay: Antischistosomal activity against adult Schistosoma japonicum assessed as worm survival at 20 uM after 48 hrs relative to control.
The subject of assay [28] is Schistosoma japonicum. Put plainly: Antischistosomal activity against adult Schistosoma japonicum assessed as worm survival at 15 uM after 48 hrs relative to control.
Assay [29] concerns Schistosoma japonicum. Put plainly: Antischistosomal activity against adult Schistosoma japonicum assessed as worm survival at 20 uM after 72 hrs relative to control.
Assay [30] concerns Schistosoma japonicum. Put plainly: Antischistosomal activity against adult Schistosoma japonicum assessed as worm survival at 15 uM after 72 hrs relative to control.
In assay [31] the test system is Schistosoma japonicum. Nature of the assay: Antischistosomal activity against adult Schistosoma japonicum assessed as worm survival at 20 uM after 24 hrs relative to control.
The test system of assay [32] is Schistosoma japonicum. Nature of the assay: Antischistosomal activity against adult Schistosoma japonicum assessed as worm survival at 15 uM after 24 hrs relative to control.
In assay [33] the test system is Schistosoma japonicum. Nature of the assay: Antischistosomal activity against juvenile Schistosoma japonicum assessed as worm survival at 25 uM after 24 hrs relative to control.
Assay [34] relates to Schistosoma japonicum. Nature of the assay: Antischistosomal activity against juvenile Schistosoma japonicum assessed as worm survival at 25 uM after 48 hrs relative to control.
The subject of assay [35] is Schistosoma japonicum. Nature of the assay: Antischistosomal activity against juvenile Schistosoma japonicum assessed as worm survival at 25 uM after 72 hrs relative to control.
In assay [36] the test system is Schistosoma japonicum. Nature of the assay: Antischistosomal activity against adult Schistosoma japonicum assessed as worm survival at 80 uM after 48 hrs relative to control.
Assay [37] has as its system Schistosoma japonicum. Nature of the assay: Antischistosomal activity against adult Schistosoma japonicum assessed as worm survival at 100 uM after 48 hrs relative to control.
The subject of assay [38] is Schistosoma japonicum. Put plainly: Antischistosomal activity against adult Schistosoma japonicum assessed as worm survival at 80 uM after 72 hrs relative to control.
The test system of assay [39] is Schistosoma japonicum. Put plainly: Antischistosomal activity against adult Schistosoma japonicum assessed as worm survival at 100 uM after 72 hrs relative to control.
The test system of assay [40] is Schistosoma japonicum. Nature of the assay: Antischistosomal activity against adult Schistosoma japonicum assessed as worm survival at 80 uM after 24 hrs relative to control.
The test system of assay [41] is Schistosoma japonicum. Nature of the assay: Antischistosomal activity against adult Schistosoma japonicum assessed as worm survival at 100 uM after 24 hrs relative to control.

Take `O=C(C1CCCCC1)N1CC(=O)N2CCc3ccc(O)cc3C2C1` (stereo not given): the survival at 50 µM in [1], in assay [5], in assay [9], in assay [13], in assay [17] and in assay [23] was 0% throughout. In addition, the survival at 25 µM in assay [2], in assay [6] and in assay [24] was 0% in each case. For the same compound, the survival at 10 µM amounted to 20% in assay [3]; 20% in [7]; 0% in assay [11]; 45.5% in [15]; 54.5% in assay [19]; 0% in [25]. Further, the survival at 5 µM in assay [4] came to 80%; in assay [8], 80%; in assay [12] it was 0%; in assay [16] it was 27.3%; in [20], 27.3%; in assay [26] it was 60%. The survival at 15 µM in [10], in [14] and in assay [18] was 0% each time. For the same compound, the Activity in [21] is 40.2%; in assay [22], 16.1%.

`C[C@H]1[C@@H](OC(=O)CCC(=O)Oc2ccc3c(c2)C2CN(C(=O)C4CCCCC4)CC(=O)N2CC3)O[C@@H]2O[C@@]3(C)CC[C@H]4[C@H](C)CC[C@@H]1[C@@]24OO3` (stereo not given in full): the survival at 50 µM in assay [1], in assay [5], in assay [9], in [13], in [17] and in assay [23] was 0% each time. Also, the survival at 25 µM in assay [2], in [6] and in assay [24] was 0% in each case. Moreover, the survival at 20 µM in [27], in assay [29] and in [31] was 0% in each case. Further, the survival at 15 µM in assay [28], in [30], in [10], in assay [14], in [18] and in assay [32] was 0% throughout. Moreover, the survival at 10 µM was 16.7% in assay [11], 33.3% in assay [15] and 33.3% in assay [19]. The Activity in [21] came to 56.2%; in assay [22], 70.3%.

As for `C[C@H]1[C@@H](CC(=O)Nc2ccc3c(c2)C2CN(C(=O)C4CCCCC4)CC(=O)N2CC3)O[C@@H]2O[C@@]3(C)CC[C@H]4[C@H](C)CC[C@@H]1[C@@]24OO3` (stereo not given in full), the figures for the survival at 50 µM in assay [1], in assay [5] and in assay [23] were 80%, 100% and 20%, respectively.

`C[C@H]1[C@@H](CC(=O)Oc2ccc3c(c2)C2CN(C(=O)C4CCCCC4)CC(=O)N2CC3)O[C@@H]2O[C@@]3(C)CC[C@H]4[C@H](C)CC[C@@H]1[C@@]24OO3` (stereo not given in full): the survival at 50 µM in assay [1] worked out at 0%; in assay [5] it was 0%; in [9], 14.3%; in assay [13] it was 0%; in assay [17], 0%; in [23], 0%. The survival at 25 µM amounted to 40% in [2]; 0% in assay [6]; 28.6% in assay [33]; 25% in assay [34]; 0% in assay [35]; 0% in assay [24]. The survival at 10 µM stood at 80% in [3], 0% in [7] and 100% in assay [25]. Moreover, the values for the survival at 5 µM in assay [4], in [8] and in assay [26] were 40%, 20% and 0%, respectively. Moreover, the survival at 15 µM in assay [10], in assay [14] and in assay [18] was 28.6% in each case. For the same compound, the Activity in assay [21] is 49.6%; in assay [22], 20.5%.

As for `O=C(Nc1ccc2c(c1)C1CN(C(=O)C3CCCCC3)CC(=O)N1CC2)C1CCC2(CC1)OOC1(CCCCC1)OO2` (stereo not given), the survival at 50 µM in assay [1] stood at 0%; in [5] it was 0%; in assay [9] it was 33.3%; in assay [13], 0%; in [17], 0%; in assay [23] it was 0%. In addition, the survival at 25 µM was determined as 0% in assay [2]; 40% in assay [6]; 37.5% in assay [33]; 33.3% in [34]; 12.5% in [35]; 60% in [24]. Besides, the survival at 20 µM in assay [27], in [29] and in assay [31] was 100% in each case. Moreover, the survival at 15 µM in [28], in [30] and in assay [32] was 100% throughout. For the same compound, the figures for the Activity in assay [21] and in assay [22] were 38.7% and 25.1%, respectively.

For the compound `O=C(Oc1ccc2c(c1)C1CN(C(=O)C3CCCCC3)CC(=O)N1CC2)C1CCC2(CC1)OOC1(CCCCC1)OO2` (stereo not given), the survival at 50 µM in assay [1] was 80%; in [5], 80%; in assay [9], 0%; in assay [13] it was 14.3%; in assay [17] it was 14.3%; in [23], 40%. Moreover, the survival at 80 µM was 80% in assay [36], 40% in assay [38] and 80% in assay [40]. In addition, the survival at 100 µM was 20% in assay [37], 0% in assay [39] and 80% in assay [41].

On to `O=C(Nc1ccc2c(c1)C1CN(C(=O)C3CCCCC3)CC(=O)N1CC2)C1CCC2(CC1)OOC1(O2)C2CC3CC(C2)CC1C3` (stereo not given), for which the survival at 50 µM in assay [1], in [5] and in [23] was 100% in each case.
